Among the test systems are A498 renal; HCT-116 colon; HOP-62 NSCLC; HS 578T breast; HT29 colon; MCF7 breast; SF-268 CNS; SNB-75 CNS; EKVX NSCLC; RXF 393 renal.
Common to all, as to assay: growth of human tumour cells (NCI), 48 h

“And” between values parts separate entries of the source, which are not always exact repeats. Identical values can stand only once.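 Five concentrations, 48 hours, 96-well plates. GI50: concentration for 50% inhibition of growth. At the TGI there is no net growth.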

`O=C(O)Cn1ccc(=O)c2c([N+](=O)[O-])cccc21`: the TGI in the test with A498 renal, in the test on HCT-116 colon, with HOP-62 NSCLC, in the test with HS 578T breast, with HT29 colon and in the test on MCF7 breast was greater than 100 µM in each case. For the same molecule, the TGI with SF-268 CNS and in the test on SNB-75 CNS was greater than 100 µM throughout.

For `Oc1c(I)cc(Cl)c2cccnc12`, the GI50 in the test on EKVX NSCLC is 2.89 µM and 25.4 µM; with HCT-116 colon it was 3.31 µM and 2.67 µM; in the test with HOP-62 NSCLC, 4.02 µM and 4.07 µM; in the test with HS 578T breast, 7.78 µM and 8.12 µM; in the test on HT29 colon, 11.3 µM and 6.1 µM; in the test on MCF7 breast, 3.24 µM and 6.36 µM. In addition, the GI50 in the test with RXF 393 renal is 2.27 µM and 16.8 µM; in the test with SF-268 CNS, 3.86 µM and 6.22 µM; with SNB-75 CNS it was 4.42 µM. The TGI is 18 µM and 57.9 µM with EKVX NSCLC; 11.1 µM and 9.05 µM with HCT-116 colon; 28.5 µM and 20.1 µM in the test with HOP-62 NSCLC; > 100 µM and 57.7 µM in the test with HS 578T breast; greater than 100 µM in the test with HT29 colon; 41.3 µM and > 100 µM in the test on MCF7 breast. In addition, the TGI in the test with SF-268 CNS and with SNB-75 CNS was greater than 100 µM each time.

On to `CN1CC[C@]23c4c5ccc(O)c4OC2c2[nH]ncc2C[C@H]3[C@H]1C5` (stereo not given in full), for which the TGI in the test on EKVX NSCLC, with HCT-116 colon, in the test on HOP-62 NSCLC, with HS 578T breast, in the test on HT29 colon and in the test with MCF7 breast was greater than 100 µM in each case. Moreover, the TGI in the test with RXF 393 renal, in the test on SF-268 CNS and in the test with SNB-75 CNS was greater than 100 µM throughout.

On to `O=C(CN(/C=C/C(=O)C(F)(F)F)c1ccccc1)c1ccc(F)cc1`, for which the GI50 in the test with EKVX NSCLC is 49.9 µM; in the test on HCT-116 colon it was 25.3 µM; in the test with HOP-62 NSCLC it was 75.1 µM; with HS 578T breast, 2.57 µM; with HT29 colon, 38.9 µM; in the test on MCF7 breast, 23.2 µM. Besides, the results for the GI50 in the test with RXF 393 renal and with SF-268 CNS were 39.8 µM and 23.1 µM, respectively. Besides, the TGI in the test on EKVX NSCLC was greater than 100 µM; with HCT-116 colon it was 88.1 µM; with HOP-62 NSCLC, greater than 100 µM; with HS 578T breast, 8.33 µM; in the test with HT29 colon, greater than 100 µM; in the test with MCF7 breast it was 59.3 µM. The TGI in the test with RXF 393 renal is greater than 100 µM; with SF-268 CNS, 64.5 µM.

Regarding `COC(=O)c1ccc2c(c1)C(=O)c1c-2n(CCCCl)c(=O)c2cc(OC)c(OC)cc12`, the GI50 in the test with EKVX NSCLC, in the test on HCT-116 colon, in the test on HOP-62 NSCLC, in the test on HS 578T breast, with HT29 colon and in the test with MCF7 breast was greater than 100 µM in each case. Also, the GI50 with SF-268 CNS was greater than 100 µM; in the test with SNB-75 CNS, 12.9 µM. Besides, the TGI in the test with EKVX NSCLC, in the test on HCT-116 colon, in the test on HOP-62 NSCLC, in the test on HS 578T breast, in the test on HT29 colon and in the test with MCF7 breast was greater than 100 µM each time. In addition, the TGI in the test on SF-268 CNS was greater than 100 µM; in the test with SNB-75 CNS, 91.6 µM.

On to `CC(=O)OC1COC(Oc2c(C)c3c4c(c2O)[C@@H](C)CC[C@@H]4[C@@H](C)C[C@H]3C=C(C)C)C(O)C1O` (stereo not given in full), for which the GI50 was 14.7 µM with A498 renal; 16.1 µM with HCT-116 colon; 17.8 µM in the test on HOP-62 NSCLC; greater than 100 µM with HS 578T breast; 20.7 µM in the test on MCF7 breast; 19.8 µM with RXF 393 renal. For the same molecule, the GI50 in the test with SF-268 CNS is 15.4 µM. The TGI is 30 µM in the test with A498 renal; 41.3 µM in the test on HCT-116 colon; 34.2 µM in the test with HOP-62 NSCLC; greater than 100 µM with HS 578T breast; greater than 100 µM in the test on MCF7 breast; 42.3 µM in the test with RXF 393 renal. Also, the TGI in the test on SF-268 CNS is 38.5 µM.

Consider `O=C(Nc1cccc(-n2cc(-c3ccncc3)c(-c3ccc(O)c(Cl)c3)n2)c1)Nc1ccc(Cl)c(Cl)c1`, for which the GI50 was 1.95 µM with A498 renal; 1.83 µM with HCT-116 colon; 1.4 µM in the test on HS 578T breast; 3.42 µM with HT29 colon; 1.88 µM with MCF7 breast; 2.65 µM with SF-268 CNS. For the same molecule, the TGI in the test with A498 renal stood at 7.01 µM; in the test on HCT-116 colon it was 5.33 µM; in the test on HS 578T breast, 7.1 µM; with HT29 colon, 39 µM; in the test with MCF7 breast it was 5.23 µM; with SF-268 CNS, 16.6 µM.

On to `COc1cc2c3c(n(CCCN4CCSCC4)c(=O)c2cc1OC)-c1cc2c(cc1C3=O)OCO2`, for which the GI50 in the test with EKVX NSCLC is greater than 100 µM; with HCT-116 colon, 73.1 µM; with HOP-62 NSCLC it was 26.2 µM; in the test with HS 578T breast, 71.7 µM; with HT29 colon it was greater than 100 µM; in the test on MCF7 breast, 61.4 µM. The GI50 is 27.3 µM in the test with RXF 393 renal, 28.2 µM in the test with SF-268 CNS and 12.9 µM in the test on SNB-75 CNS. In addition, the TGI with EKVX NSCLC was greater than 100 µM; with HCT-116 colon, greater than 100 µM; with HOP-62 NSCLC it was 73.7 µM; in the test on HS 578T breast, greater than 100 µM; in the test with HT29 colon, greater than 100 µM; in the test on MCF7 breast it was greater than 100 µM. The values for the TGI with RXF 393 renal, in the test on SF-268 CNS and with SNB-75 CNS were 67.8 µM, greater than 100 µM and 27.5 µM, respectively.

Source of the values: PubChem BioAssay (NCI).
